Experimental data from PMC6881253, “The PCNA interaction motifs revisited: thinking outside the PIP-box” (Cellular and Molecular Life Sciences: CMLS, 2019).
Where two headings read alike, the source gives them in different places. Ends that are not written are not given here.

How the values were obtained:
human PCNA [1] = target: T1, human PCNA (Homo sapiens, UniProt P12004); assay: SPR binding of peptides to His6-tagged PCNA captured by anti-His6 antibody; settings: for Kd: Table S2, SPR, pH 7.5, T 298, This work
Experimental: A stock of > 100 µM PCNA in purification buffer was diluted to the working concentration of 200 nM in 10 mM NaH2PO4, 500 mM NaCl, pH 7.0, 1 mM β-mercaptoethanol. The peptides were dissolved in SPR running buffer (i.e., 10 mM HEPES, 150 mM NaCl, 0.05% (v/v) P20, pH 7.4).
Binding analyses were recorded on a Biacore T200™ instrument (GE Healthcare Life Sciences). A single cycle protocol setup was used for the injection of ligands in flow cells with PCNA captured by an anti-His antibody covalently coupled to a CM5 chip (GE Healthcare Life Sciences, Cat# BR100530). […] Remaining activated NHS-esters were blocked by injecting 35 µL 1 M ethanolamine, pH 8.5. All procedures were conducted at a flow rate of 5 µL min^−1. […] The control surface was not exposed to PCNA. […] The injection cycles alternated between injections cycles of buffer and peptide with no intervening regeneration. […] For the UNG2, APIM, and FEN1 measurements, a final injection cycle of p21 with a final concentration of 50 nM was run as a control of consistency. Complete regeneration of the flow cells between each single-cycle run was accomplished by injecting 10 mM glycine–HCl, pH 1.5 for 60 s with a flow rate of 30 µL min^−1. All measurements were carried out at 25 °C.
Fitting of the data by non-linear regression to a bimolecular interaction model, assuming pseudo-first order reaction condition yielded the association (kon) and dissociation (koff) rate constants. […] For runs with different capture levels of PCNA for each injection cycle, the responses were normalized to a common Rmax value. We used the evaluation software supplied with the instrument for global fitting (BiacoreT200 Evaluation 3.0).

human PCNA [2] = target: T1, human PCNA; assay: ITC, PCNA injected into peptide; format: binding
Experimental: PCNA was buffer exchanged and concentrated using a 10000 MWCO filter (millipore) against the ITC buffer (10 mM HEPES, 150 mM NaCl, 1 mM EDTA, 1 mM TCEP, pH 7.4) for all experiments. The lyophilized peptides were dissolved in the ITC buffer at concentrations between 0.2 and 1 mM determined using A280. For all experiments, PCNA was injected into peptide. For p21^143–157 the peptide concentration was 10 µM, and the PCNA trimer concentration 40 µM. […] For experiments with S2, S1, and D1.2, the peptide concentrations were 20 µM, 60 µM, and 50 µM, respectively, and the PCNA trimer concentration 100 µM, 200 µM, and 269 µM, respectively. All buffer, protein, and peptide solutions were properly degassed prior to loading. ITC was performed with the microCal instrument ITC200 (Malvern). Data were recorded at 25 °C with a stirring speed of 307 rpm and a reference power of 10 µCal s^−1. The heat of dilution was determined from the final injections after saturation of the complex and was subtracted from the data for all peptides except S1 and D1.2 where saturation was not reached. Data from the ITC experiments were analyzed using the Origin 7 software package (MicroCal™). The data were fitted to a single binding site model.
All experiments were carried out in triplicates. […] In the case of the D1.2 peptide, the stoichiometry was kept constant at three peptides per PCNA molecule to achieve convergence in the fitting procedure.

PCNA [3] = target: PCNA; parameters: method as in 4 sources, one per row (each row's own in cited_ref): ref PMID 19208623 ||| ref PMID 8876181 ||| ref PMID 24728180 ||| ref PMID 10899134; settings: SPR, cited from earlier work
PCNA [4] = settings: cited from earlier work
Source text: Supplement 18_2019_3150_MOESM1_ESM.docx, table 2: Table S2: Binding affinities of curated PCNA binding proteins. | column: KD (M)

PCNA [5] = target: PCNA; parameters: method as in 11 sources, ref PMID 15576034 ||| ref PMID 10858286 ||| ref PMID 23139781 ||| ref PMID 30655288 ||| ref PMID 28621305 ||| ...; settings: ITC, cited from earlier work
[6] = SPR single-cycle kinetics, bimolecular model, 10 mM HEPES, 150 mM NaCl, 0.05% P20, pH 7.4, 25 °C
[7] = pH 7.5, T 298, ref PMID 19208623
[8] = pH 7.5, T 303, ref PMID 15576034
[9] = pH 7.5, T 279, ref PMID 23677613

T1 sequence (P12004 whole entry): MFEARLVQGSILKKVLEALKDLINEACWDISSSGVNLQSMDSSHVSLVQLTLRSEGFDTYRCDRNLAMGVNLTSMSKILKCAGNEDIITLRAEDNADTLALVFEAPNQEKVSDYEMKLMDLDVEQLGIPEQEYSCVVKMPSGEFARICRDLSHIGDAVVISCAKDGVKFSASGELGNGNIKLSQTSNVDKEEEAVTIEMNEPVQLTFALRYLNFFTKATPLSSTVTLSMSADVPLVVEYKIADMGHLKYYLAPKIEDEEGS

Substance: Ac-MDRWLVKW-NH2 [APIM]
- Kd (human PCNA [1]): 10.9 µM

Substance: Ac-RKRRATSMTDFYHSKRRL-NH2 [p21^140–157,Q144A]
- fold drop in the affinity for PCNA on mutating Q at the first position to alanine (human PCNA [2]; ITC): 50 fold

Substance: Ac-RKRRQGRLDDFFHSKRRL-NH2
- fold change (increase) of affinity for PCNA on grafting p21 flanking regions to Fen1 (human PCNA [2]; ITC, versus Fen1 peptide): 60 fold

Substance: Ac-RQSTLYSFFPKSPAL-NH2 [MSH6]
- Kd (human PCNA [1]): 2.61 µM

Substance: Ac-RQTSMTDFYHSKRRL-NH2 [p21]
- koff (human PCNA [1]; [6]): 0.14 ± 0.0003 s⁻¹
- kon (human PCNA [1]; [6]): 1.7e+06 ± 1e+10 M⁻¹ s⁻¹

Substance: Ac-SESSQTSMTDFYHSKRRL-NH2 [S1]
- Kd (human PCNA [2]; 10 mM HEPES, 150 mM NaCl, 1 mM EDTA, 1 mM TCEP, pH 7.4, 25 °C, one set of sites, mean of triplicates): 8.3 ± 1.9 µM

Substance: Ac-TQGRLDDFFKVTGSL-NH2 [FEN1]
- Kd (human PCNA [1]): 44.9 µM

Substance: CKRPRPEGMQTLESFFKPLTH [PolEta 694–713, literature DNA polymerase η peptide]
- Kd (PCNA [3]; [7]): 0.4 µM

Substance: FTHFEKEKQHDIRSFFVPQPKK [ZRANB3 511–532, literature ZRANB3 PIP-box peptide]
- Kd (PCNA [4]; method not given, pH 7.5, T 298, ref PMID 28621305): 4.8 µM

Substance: GKANRQVSITGFFQRK* [p66Polδ 451–466, literature peptide of DNA polymerase δ p66 subunit]
- Kd (PCNA [5]; [8]): 15.6 µM

Substance: KDKFIRRWVHKEGFSG [FBH1 605-620, literature FBH1 peptide]
- Kd (PCNA [5]; [9]): 0.59 µM

Substance: KQRVRVKTVPSLFQAKLD TFLWS [TRAIP 447–469, literature TRAIP peptide]
- Kd (PCNA [5]; pH 7.4, T 298, ref PMID 26711499): 30.7 µM

Substance: KRRQTSMTDFYH [p21 141–152, literature p21 peptide]
- Kd (PCNA [5]; pH 7, T 303, ref PMID 23139781): 0.625 µM
- Kd (PCNA [5]; pH 7, T 308, ref PMID 23139781): 1.1 µM

Substance: KTSPGRSVKEEAQNLIRHFFHGRARCES [RecQ5 952-979, literature RecQ5 peptide]
- Kd (PCNA [5]; pH 7.0, T 308, ref PMID 30655288): 210 µM

Substance: MDRFLVKGAQGGLLRK [ABH2 1-16, literature ABH2 APIM peptide]
- Kd (PCNA [5]; [9]): 0.32 µM

Substance: MGRKRLITDSYPVVKRREG [p12 1-19]
- Kd (PCNA [4]; NMR, pH 7.0, T 308, ref PMID 30655288): 130 µM
- Kd (PCNA [5]; pH 7.0, T 298, ref PMID 30655288): 38 µM

Substance: MIGQKTLYSFFTPSP [UNG2]
- Kd (human PCNA [1]): 34.1 µM

Substance: PANGEQLHLVNYVEDTLDSIES [ING1 4–25, literature ING1 peptide]
- Kd (PCNA [4]; NMR, pH 7, T 308, ref PMID 23139781): 12500 µM

Substance: PKWQKGIGEFFR [p15 59–70, literature p15(PAF) peptide]
- Kd (PCNA [5]; pH 7, T 308, ref PMID 25762514): 83 µM

Substance: PRPEGMQTLESFFKPLTH* [PolEta 696–713, literature DNA polymerase η peptide]
- Kd (PCNA [5]; pH 7.4, T 298, ref PMID 26903512): 11 µM

Substance: QHGKKDSKITDHFMRLPKA [PARG 402–420, literature PARG peptide]
- Kd (PCNA [5]; pH 7.4, T 298, ref PMID 28934471): 3.3 µM

Substance: QVRRQSLASKHGSDITRFLVKK [ZRANB3 1058–79, literature ZRANB3 APIM peptide]
- Kd (PCNA [5]; pH not given, T 298, ref PMID 28621305): 9.2 µM

Substance: RGQGSQRCIPEFFLAGKQPCTN [FBH1 52–72, literature FBH1 peptide]
- Kd (PCNA [5]; [9]): 0.25 µM

Substance: RQGSTQGRLDDFFKVTGSLSSA [FEN1 332–353, literature FEN1 peptide]
- Kd (PCNA [5]; [8]): 59 µM

Substance: SKSRQGSTQGRLDDFF [FEN1 329–344, literature FEN1 peptide]
- Kd (PCNA [3]; pH 7.4, T not given, ref PMID 24728180): 0.0846 µM

Substance: SQGRKRRQTSMTDFYHSKRR [p21 137–156, literature p21 peptide]
- Kd (PCNA [3]; [7]): 0.065 µM

Substance: p15 1–111: full-length p15(PAF) protein, literature
- Kd (PCNA [5]; pH 7, T 298, ref PMID 25762514): 0.11 µM
- Kd (PCNA [5]; pH 7, T 308, ref PMID 25762514): 2.5 µM
